Data on 8 molecules can be found in patent US6593365B1, “Diflunisal esters and related compounds” (The University of Queensland, priority 1997, dated 2003).

Series [1] is described as follows: Intrinsic (maximum) solubility in water at pH 1.5. In kind it is physicochemical. As to conditions: for solubility: 25 °C, pH 1.5, simulated gastric fluid. How it is done: The pH conditions were chosen to ensure that the solubility of the unionised species was estimated. […] Lea & Febiger/Philadelphia. […] […] The solvent (9.9 mL) was then added to the test tube. […] The test tube was sonicated for 15 minutes and centrifuged for 10 minutes (3000 g at 25° C.). An aliquot was filtered (Minisart 0.45 μm filter, Satorius) and diluted with HPLC mobile phase, then assayed. The tube was stored carefully in a 25° C. water bath after sampling and the remaining suspension was again sonicated and the process repeated 7 times at four hourly intervals. In these assays, standard curves were prepared by directly dissolving the esters in mobile phase. Concentrations for standard curves ranged from 1-50 μg/mL for all compounds. Furthermore, a manual injector (Waters Model U6K) was used (20 μL sample loop) which ensured that 20 μL was consistently injected onto the column and precluded the need for an internal standard.

Series [2] concerns in-situ perfused rat liver. Put plainly: In-situ rat liver perfusion bolus studies, moments and dispersion model analysis (Example 3). It is filed as in vitro ADME, Sprague-Dawley rats. As to conditions: n = 3, Mean S.E.; for a (dispersion model) / RN (efficiency number): determined using equation 5 & 6; for CV^2 (normalized variance) / MTT (mean transit time) / F (hepatic availability): moments analysis, bolus, 30 mL/min; for CV^2 (normalized variance) / MTT (mean transit time) / Efflux rate coefficient (k2) / Elimination rate coefficient (kel) / Influx rate coefficient (k1) / F (hepatic availability): 2% BSA perfusate; for Efflux rate coefficient (k2) / Elimination rate coefficient (kel) / Influx rate coefficient (k1): two-compartment dispersion model fitting. How it is done:
Mature female Sprague-Dawley rats were obtained from the University of Queensland Animal Breeding Facility and weighed between 180-270 grams. The animals were given access to a standard laboratory diet prior to experiment. Rats were anaesthetised by interperitoneal injection of pentobarbital sodium (60 mg/kg, Boehringer Ingelhein). […] The bile duct was cannulated with PE10 (Clay Adams, New Jersey). 0.025 gm/L taurocholic acid (Sigma Co., USA.) was dissolved in perfusate to stimulate bile production. The portal vein was then cannulated using a 16 G intravenous catheter and the liver was perfused via this cannula with 2% BSA Krebs-Henseleit bicarbonate buffer (pH 7.4) and oxygenated using a silastic tubing lung ventilated with carbogen (95% O2/5% CO2). The perfusion system used was non-recirculating and employed a peristaltic pump (Cole-Parmer, Illinois).
The animal was placed in a temperature controlled perfusion cabinet at 37° C. Liver viability was assessed by oxygen consumption, bile flow, diflunisal esters' extraction and macroscopic appearance.
Perfusions were made at 30 mL/min in each liver. After a 10 minute perfusion stabilization period, injectate (50 μL) containing Evans Blue (3 mg/mL) and [^3H]-water in a saturated solution of the particular O-acyl diflunisal ester or pregenerated diflunisal (which was injected as parent compound) in 2% BSA Krebs-Henseleit buffer, was injected into the liver with outlet samples collected via a fraction collector over one minute.
Aliquots (100 μL) of pooled perfusate samples were taken for Evans Blue spectrophotometric analysis and [^3H]-water scintillation counting before adjusting pH. These pooled samples were then acidified to pH 2.0 by addition of 1 M HCl and extracted into 2.5 volumes of ether. […] The ether fraction was then removed and reduced to approximately 100 μL by evaporation under air and prepared as before for HPLC analysis. A known concentration of each buffer solution of ester was concurrently extracted and assayed with the perfusate samples to assess the degree of spontaneous hydrolysis occurring over the duration of the extraction procedure. This non-enzymatic hydrolysis was converted for in the analysis. The total recovery of diflunisal esters extracted using this technique was >90%.
The F, MTT and CV^2 for the diflunisal esters (or pregenerated DF) and the reference solutes (EB and [^3H]-water) were determined from the outflow concentration versus time profile using equation (1)-(4), with the assistance of the Moments Calculator 2.2 program for Macintosh computer developed by Robert Purves (Purves RD, 1994, J. Pharm. Sci. 83 202-205). [formula] [formula]
where Q is the perfusate flow rate, D is the dose of diflunisal esters administered. The area under the concentration-time curve (AUC) and the first moment curve (AUMC) were estimated by the trapezoidal rule integration with appropriate modification for tail (Mellick et al., 1996, submitted for publication). [formula]
The moment data was further examined using the dispersion model of hepatic elimination which defines F of an extracted solute by the equation (Roberts et al., 1990, J. Pharmacokin. Biopharm. 18 209-234): [formula]
a={square root over (1+4RNDN)} (6)
DN is the dispersion number which describes the spread of solute residence times in the liver following bolus input and equal half the normalized variance for a non-extracted reference indicator [formula]
RN is the efficiency number which characterises the elimination of solute by the liver and is defined by the equation: [formula]
(Gillette, 1971, Ann. N. Acad. Sci. 179 43-61)), and Q is the perfusate flow rate. If F for a solute and the CV^2 for a non-extracted reference solute (eg. EB) are known, we can solve for “a” using equation (5) and then for “RN” using equation (6).
The dispersion model expressions (Roberts et al., 1990) for MTT and CV^2 are presented in equations (8) and (9). [formula] [formula] […]

A short description of series [3]: Maximum solubility in 2% BSA Krebs-Henseleit buffer (pH 7.4). In kind it is physicochemical. Conditions: 25 1° C. The source says:
The intrinsic solubility of diflunisal esters is extremely low (TABLE 2). The more lipophilic the analogue, the higher the solubility of solute under these conditions.

Series [4] addresses T1, BSA (bovine serum albumin) (Bos taurus, UniProt P02769).
T1 construct: BSA (bovine serum albumin, fraction V, Sigma); purchased Sigma; host or cells: bovine serum (fraction V)
Conditions: 2% BSA; Hung et al., 1996; cited from earlier work.

Molecules are shown by their SMILES. Several values for one entry are separate records, joined by “and”; a condition that tells them apart may be missing. Identical values can stand only once. Marks after values point to notes of the source that are not given here.

T1 sequence (P02769 25-607): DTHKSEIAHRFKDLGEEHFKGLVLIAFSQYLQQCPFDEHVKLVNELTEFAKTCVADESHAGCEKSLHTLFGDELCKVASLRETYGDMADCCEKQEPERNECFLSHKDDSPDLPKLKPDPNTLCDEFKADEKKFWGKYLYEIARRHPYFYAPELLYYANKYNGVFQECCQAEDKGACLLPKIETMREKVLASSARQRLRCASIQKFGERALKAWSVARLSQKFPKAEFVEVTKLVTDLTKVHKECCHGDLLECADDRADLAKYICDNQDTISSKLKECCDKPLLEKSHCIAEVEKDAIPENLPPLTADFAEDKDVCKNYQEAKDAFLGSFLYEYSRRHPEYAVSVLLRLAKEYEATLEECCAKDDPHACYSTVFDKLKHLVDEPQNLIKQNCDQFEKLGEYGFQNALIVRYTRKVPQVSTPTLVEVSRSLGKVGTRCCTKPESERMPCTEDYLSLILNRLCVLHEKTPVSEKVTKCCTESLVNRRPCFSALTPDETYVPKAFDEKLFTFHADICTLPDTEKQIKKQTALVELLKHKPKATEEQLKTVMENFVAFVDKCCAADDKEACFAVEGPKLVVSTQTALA

Broadly, the solubility is the concentration that dissolves in the medium under given conditions. Low values mean little dissolved substance, high ones much dissolved substance. `CCCC(=O)Oc1ccccc1C(=O)O` [Compound C4SA, n-butanoylsalicylic acid]: the solubility in series [1] was 570 µg/mL and 2700 µM.
For the molecule `O=C(O)c1cc(-c2ccc(F)cc2F)ccc1O` [DF, 2′,4′-difluoro-4-hydroxy-3-biphenylcarboxylic acid, reference compound], in series [2], the “a (dispersion model)” value turned out to be 1.33 ± 0.01, the “CV^2 (normalized variance)” value is reported as 0.99 ± 0.27, the “MTT (mean transit time)” value stood at 6.80 ± 0.94 s and the “RN/fub (removal of unbound solute)” value is listed as 9.51 ± 0.18. For the same molecule, in series [2], the “Efflux rate coefficient (k2)” value was 0.02 ± 0.01 s⁻¹, the “Elimination rate coefficient (kel)” value came to 0.06 ± 0.01 s⁻¹ and the “Influx rate coefficient (k1)” value is 0.18 ± 0.03^b sec^−1.
Consider `CCCCC(=O)Oc1ccccc1C(=O)O` [Compound C5SA, n-pentanoylsalicylic acid], for which the solubility in series [1] was 74 µg/mL and 330 µM.
As for `CCCC(=O)Oc1ccc(-c2ccc(F)cc2F)cc1C(=O)O` [Compound C4D, n-butanoyldiflunisal], in series [2], the “RN (efficiency number)” value amounted to 1.56 ± 0.02, the “a (dispersion model)” value came to 1.87 ± 0.01, the “CV^2 (normalized variance)” value came out at 1.01 ± 0.18 and the “F (hepatic availability)” value is recorded as 0.34 ± 0.01. In series [2], the “MTT (mean transit time)” value worked out at 7.73 ± 0.99 s, the “RN/fub (removal of unbound solute)” value amounted to 11.17 ± 0.38, the “Efflux rate coefficient (k2)” value was 0.08 ± 0.04 s⁻¹ and the “Elimination rate coefficient (kel)” value turned out to be 0.16 ± 0.07 s⁻¹. Also, the “Influx rate coefficient (k1)” value in series [2] turned out to be 0.41 ± 0.12 s⁻¹. Moreover, in series [3], the Maximum solubility amounted to 12.38 mM. The Maximum solubility in series [3] (mean standard deviation (n=3)) is listed as 3.96 ± 0.08 mg/mL. The “fub (unbound fraction)” value in series [4] is listed as 0.14 ± 0.01.
With `CCCCCC(=O)Oc1ccc(-c2ccc(F)cc2F)cc1C(=O)O` [Compound C6D, n-hexanoyldiflunisal], in series [2], the “RN (efficiency number)” value is given as 1.32 ± 0.03, the “a (dispersion model)” value worked out at 1.77 ± 0.03, the “CV^2 (normalized variance)” value was found to be 1.15 ± 0.48 and the “F (hepatic availability)” value turned out to be 0.38 ± 0.04. Moreover, in series [2], the “MTT (mean transit time)” value came out at 6.19 ± 0.95 s, the “RN/fub (removal of unbound solute)” value turned out to be 16.50 ± 0.22, the “Efflux rate coefficient (k2)” value was determined as 0.06 ± 0.03 s⁻¹ and the “Elimination rate coefficient (kel)” value stood at 0.15 ± 0.03 s⁻¹. The “Influx rate coefficient (k1)” value in series [2] was 0.63 ± 0.24 s⁻¹. The “RN/fub (removal of unbound solute)” value in series [2] (listed as hexanoyl) is 16.50. The Maximum solubility in series [3] turned out to be 44.77 mM. Further, in series [3] (mean standard deviation (n=3)), the Maximum solubility is reported as 15.58 ± 0.3 mg/mL. In addition, in series [4], the “fub (unbound fraction)” value is recorded as 0.08 ± 0.00.
In the case of `CC(=O)Oc1ccc(-c2ccc(F)cc2F)cc1C(=O)O` [Compound C2D, acetyldiflunisal], in series [2], the “RN (efficiency number)” value is given as 2.58 ± 0.02, the “a (dispersion model)” value is 2.26 ± 0.02^c, the “CV^2 (normalized variance)” value stood at 0.70 ± 0.19 and the “F (hepatic availability)” value is on record as 0.21 ± 0.03. For the same molecule, in series [2], the “MTT (mean transit time)” value came out at 10.36 ± 2.31 s, the “RN/fub (removal of unbound solute)” value is given as 9.57 ± 0.37, the “Efflux rate coefficient (k2)” value turned out to be 0.25 ± 0.03 s⁻¹ and the “Elimination rate coefficient (kel)” value stood at 0.18 ± 0.02 s⁻¹. For the same molecule, the “Influx rate coefficient (k1)” value in series [2] was 1.20 ± 0.11 s⁻¹. Further, the “RN/fub (removal of unbound solute)” value in series [2] (listed as acetyl) was found to be 9.57. In series [1] (water at pH 1.5, 25 1° C., U = Undetectable), the Maximum solubility is reported as 0.03 mM. Also, the Maximum solubility in series [3] is 7.57 mM. The molecule also displayed a Maximum solubility in series [3] (mean standard deviation (n=3)) of 2.2 ± 0.07 mg/mL. Besides, the “fub (unbound fraction)” value in series [4] is recorded as 0.27 ± 0.02.
Turning to `CCCCC(=O)Oc1ccc(-c2ccc(F)cc2F)cc1C(=O)O` [Compound C5D, n-pentanoyldiflunisal], in series [2], the “RN (efficiency number)” value stood at 1.32 ± 0.03, the “a (dispersion model)” value is given as 1.77 ± 0.02, the “CV^2 (normalized variance)” value is 1.02 ± 0.33 and the “F (hepatic availability)” value amounted to 0.38 ± 0.02. In addition, in series [2], the “MTT (mean transit time)” value amounted to 6.62 ± 0.84 s, the “RN/fub (removal of unbound solute)” value amounted to 11.04 ± 0.39, the “Efflux rate coefficient (k2)” value worked out at 0.14 ± 0.07 s⁻¹ and the “Elimination rate coefficient (kel)” value was found to be 0.18 ± 0.06 s⁻¹. Moreover, the “Influx rate coefficient (k1)” value in series [2] was 0.51 ± 0.16 s⁻¹. Also, in series [3], the Maximum solubility came out at 20.90 mM. In addition, the Maximum solubility in series [3] (mean standard deviation (n=3)) was 6.98 ± 0.15 mg/mL. In addition, in series [4], the “fub (unbound fraction)” value is given as 0.12 ± 0.01.
Regarding `CCCCCC(=O)Oc1ccccc1C(=O)O` [Compound C6SA, n-hexanoylsalicylic acid], in series [1], the solubility was 19 µg/mL and 80 µM.
